Series [1] concerns the target human CB1 receptor (Homo sapiens, UniProt P21554). Briefly: In vitro cannabinoid-CB1 receptor antagonism (WIN 55,212-2-induced [3H]-arachidonic acid release in CHO cells). Type of series: cell-based. Particulars: antagonism of WIN 55,212-2-induced [3H]-arachidonic acid release, read-out: In vitro antagonism pA2-value (arachidonic acid release) (converted). As for the experimental part:
In vitro Cannabinoid-CB1 Receptor Antagonism
In vitro CB1 receptor antagonism can be assessed with the human CB1 receptor cloned in Chinese hamster ovary (CHO) cells. CHO cells are grown in a Dulbecco's Modified Eagle's medium (DMEM) culture medium, supplemented with 10% heat-inactivated fetal calf serum. Medium is aspirated and replaced by DMEM, without fetal calf serum, but containing [^3H]-arachidonic acid and incubated overnight in a cell culture stove (5% CO2/95% air; 37° C.; water-saturated atmosphere). During this period [^3H]-arachidonic acid is incorporated in membrane phospholipids. On the test day, medium is aspirated and cells are washed three times using 0.5 mL DMEM, containing 0.2% bovine serum albumin (BSA). Stimulation of the CB1 receptor by WIN 55,212-2 leads to activation of PLA2 followed by release of [^3H]-arachidonic acid into the medium. This WIN 55,212-2-induced release is concentration-dependently antagonized by CB1 receptor antagonists.

Series [2] concerns the target human cannabinoid CB1 receptor (Homo sapiens, UniProt P21554). Kind of series: In vitro affinity for cannabinoid-CB1 receptors ([3H]CP-55,940 radioligand binding, CHO cell membranes). As to conditions: [3H]CP-55,940 as radioligand, read-out: In vitro affinity pKi value (converted). As for the experimental part:
In vitro Affinity for Cannabinoid-CB1 Receptors
The affinity of the compounds of the invention for cannabinoid CB1 receptors can be determined using membrane preparations of Chinese hamster ovary (CHO) cells in which the human cannabinoid CB1 receptor is stably transfected in conjunction with [^3H]CP-55,940 as radioligand. After incubation of a freshly prepared cell membrane preparation with the [^3H]-ligand, with or without addition of compounds of the invention, separation of bound and free ligand is performed by filtration over glassfiber filters. Radioactivity on the filter is measured by liquid scintillation counting.

Chain of human cannabinoid CB1 receptor (P21554 whole entry): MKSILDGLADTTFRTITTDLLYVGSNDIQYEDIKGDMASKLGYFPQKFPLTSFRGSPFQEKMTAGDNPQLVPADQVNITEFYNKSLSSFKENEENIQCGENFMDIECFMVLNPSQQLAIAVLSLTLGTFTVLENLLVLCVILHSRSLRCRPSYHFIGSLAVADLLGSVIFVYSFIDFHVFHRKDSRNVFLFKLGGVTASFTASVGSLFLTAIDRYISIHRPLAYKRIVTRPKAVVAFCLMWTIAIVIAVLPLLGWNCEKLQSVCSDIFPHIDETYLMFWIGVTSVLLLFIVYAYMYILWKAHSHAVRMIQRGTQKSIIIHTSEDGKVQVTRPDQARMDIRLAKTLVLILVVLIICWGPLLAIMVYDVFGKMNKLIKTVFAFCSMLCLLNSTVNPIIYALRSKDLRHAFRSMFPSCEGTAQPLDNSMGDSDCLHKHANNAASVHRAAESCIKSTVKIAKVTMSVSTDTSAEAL
Chain of human CB1 receptor (P21554 whole entry): as above

Broadly, the melting point is the temperature of the solid-liquid transition. The molecule `N/C(=N\S(=O)(=O)c1ccc(F)cc1)C1CN(c2ccc(Cl)cc2)C(c2ccc(Cl)cc2Cl)=N1` (centres unmarked) came in with a melting point of 172 to 175 °C.
Consider `O=C(NC1CCCCC1)C1CN(c2ccc(Cl)cc2)C(c2ccc(Cl)cc2Cl)=N1` (centres unmarked) [Compound 4, 1-(4-Chlorophenyl)-2-(2,4-dichlorophenyl)-N-cyclohexyl4,5-dihydro-1H-imidazole-4-carboxamide], for which the melting point lay in the range of 127 to 129 °C. Further, the Kb in series [1] is 0.02 µM. For the same molecule, in series [2], the Ki is 0.1 µM.
Regarding `O=C(NC1CC2CCC1C2)C1CN(c2ccc(Cl)cc2)C(c2ccc(Cl)cc2Cl)=N1` (single isomer, unassigned) [Compound 1, 1-(4-chlorophenyl)-2-(2,4-dichlorophenyl)-N-(exo-2-bicyclo[2.2.1]heptyl)-4,5-dihydro-1H-imidazole-4-carboxamide], the Ki in series [2] is 0.02 µM.
As for `CN(C)S(=O)(=O)/N=C(\N)C1CN(c2ccc(Cl)cc2)C(c2ccc(Cl)cc2Cl)=N1` (centres unmarked) [Compound 8, 1-(4-chlorophenyl)-2-(2,4-dichlorophenyl)-N-(dimethylaminosul-fonyl)-4,5-dihydro-1H-imidazole-4-carboxamidine], the melting point was 146 to 147 °C. Moreover, the Ki in series [2] was 0.158 µM.
On to `O=C(NN1CCCCC1)C1CN(c2ccc(Cl)cc2)C(c2ccc(Cl)cc2Cl)=N1` (centres unmarked) [Compound 3, 1-(4-chlorophenyl)-2-(2,4-dichlorophenyl)-N-(piperidin-1-yl)-4,5-dihydro-1H-imidazole-4-carboxamide], for which the melting point lay within 113 to 116 °C.
In the case of `O=C(NC1CC2CCC1C2)C1CN(c2ccc(Cl)cc2)C(c2ccc(Cl)cc2Cl)=N1` (single isomer, unassigned) [Compound 2, 1-(4-chlorophenyl)-2-(2,4-dichlorophenyl)-N-(exo-2-bicyclo[2.2.1]heptyl)-4,5-dihydro-1H-imidazole-4-carboxamide], the Ki in series [2] was 0.1 µM.
In turn, `N/C(=N\S(=O)(=O)c1ccc(Cl)cc1)C1CN(c2ccc(Cl)cc2)C(c2ccc(Cl)cc2Cl)=N1` (centres unmarked) [Compound 5, 1-(4-chlorophenyl)-2-(2,4-dichlorophenyl)-N-[(4-chlorophenyl)sulfonyl]-4,5-dihydro-1H-imidazole-4-carboxamidine] returned a melting point of 165 to 166 °C.
The same measure, in the same setting: the result for `CN(C)S(=O)(=O)/N=C(\N)C1CN(c2ccccc2)C(c2ccc(Cl)cc2)=N1` (centres unmarked) [Compound 7, 2-(4-Chlorophenyl)-N-(dimethylaminosulfonyl)-1-phenyl-4,5-dihydro-1H-imidazole-4-carboxamidine] reads 136 to 139 °C.

Values taken from patent US7495108B2, “Imidazoline derivatives having CB1-antagonistic activity” (Solvay Pharmaceuticals, B.V., priority 2004, dated 2009).
